The text below walks through data of ChEMBL document CHEMBL4842385, “Indirubin Derivatives as Dual Inhibitors Targeting Cyclin-Dependent Kinase and Histone Deacetylase for Treating Cancer” (J Med Chem, 2021).

Active and inactive are the calls of the source. The calls are words filed in the database; no cut-off is given here.

In series [1] the test system is A549. In words: Induction of apoptosis in human A549 cells assessed as downregulation of Mcl-1 protein measured after 48 hrs by Western blot analysis. The series is classed as functional, cell-based. The following applies: dose 1-10 µM. For orientation: A western blot detects proteins with antibodies after separation by electrophoresis.
The subject of series [2] is A549. In words: Potency index, ratio of SAHA IC50 to test compound IC50 for antiproliferative activity against human A549 cells assessed as cell growth inhibition measured after 48 hrs by CCK8 assay. It counts as functional.
Series [3] deals with T1, Protein deacetylase HDAC6 (Homo sapiens) (UniProt Q9UBN7).
T1 sequence (whole entry): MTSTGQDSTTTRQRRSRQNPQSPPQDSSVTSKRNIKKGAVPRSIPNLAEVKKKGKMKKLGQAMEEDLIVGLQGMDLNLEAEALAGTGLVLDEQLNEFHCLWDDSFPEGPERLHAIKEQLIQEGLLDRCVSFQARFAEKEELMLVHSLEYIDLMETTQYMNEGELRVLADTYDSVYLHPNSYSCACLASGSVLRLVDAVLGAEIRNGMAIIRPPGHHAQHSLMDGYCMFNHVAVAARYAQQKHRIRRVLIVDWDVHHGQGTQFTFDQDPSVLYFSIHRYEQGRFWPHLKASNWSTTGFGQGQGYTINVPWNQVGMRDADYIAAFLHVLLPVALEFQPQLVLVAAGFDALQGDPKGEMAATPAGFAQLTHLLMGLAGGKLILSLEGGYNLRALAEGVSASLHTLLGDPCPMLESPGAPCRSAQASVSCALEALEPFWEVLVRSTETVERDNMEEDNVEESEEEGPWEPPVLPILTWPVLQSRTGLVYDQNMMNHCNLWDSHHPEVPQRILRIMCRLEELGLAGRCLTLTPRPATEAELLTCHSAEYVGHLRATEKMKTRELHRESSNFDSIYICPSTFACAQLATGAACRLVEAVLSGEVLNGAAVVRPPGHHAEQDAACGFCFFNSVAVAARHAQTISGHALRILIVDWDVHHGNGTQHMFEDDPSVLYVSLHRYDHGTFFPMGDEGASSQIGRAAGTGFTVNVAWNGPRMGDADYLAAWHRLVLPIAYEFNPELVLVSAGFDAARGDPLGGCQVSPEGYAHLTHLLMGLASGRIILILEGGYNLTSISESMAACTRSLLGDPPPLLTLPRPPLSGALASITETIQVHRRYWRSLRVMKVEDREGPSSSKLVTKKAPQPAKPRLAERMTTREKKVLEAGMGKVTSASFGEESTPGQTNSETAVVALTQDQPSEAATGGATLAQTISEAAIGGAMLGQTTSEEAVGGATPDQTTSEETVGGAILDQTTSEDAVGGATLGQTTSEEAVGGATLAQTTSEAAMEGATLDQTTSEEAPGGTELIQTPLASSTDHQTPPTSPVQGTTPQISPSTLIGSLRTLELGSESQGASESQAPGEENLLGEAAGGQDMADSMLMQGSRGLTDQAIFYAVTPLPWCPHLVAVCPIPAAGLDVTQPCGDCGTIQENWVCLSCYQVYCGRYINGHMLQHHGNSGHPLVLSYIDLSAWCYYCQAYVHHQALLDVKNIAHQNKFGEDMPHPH
As to the kind of experiment: Inhibition of HDAC6 in human K562 cells assessed as increase in alpha tubulin acetylation measured after 48 hrs by Western blot analysis. The following applies: dose 1-10 µM. It counts as cell-based.

Series [4] has as its target T1, Protein deacetylase HDAC6 (Homo sapiens). In words: Inhibition of HDAC6 in human A549 cells assessed as increase in alpha tubulin acetylation measured after 48 hrs by Western blot analysis. The note with it: dose 1-10 µM. The series is classed as cell-based.
For series [5], the system named is A549. In words: Induction of apoptosis in human A549 cells assessed as increase in PARP cleavage measured after 48 hrs by Western blot analysis. The series is classed as functional, cell-based. The note with it: dose 1-10 µM.
Series [6] deals with A549. In words: Antitumor activity against human A549 cells xenografted in BALB/c nude mouse assessed as tumor growth inhibition at 0.75 to 1.5 mg, IT (intratumoral) administered for 21 consecutive days relative to control. The following applies: dose 0.75-1.5 mg, time 21 day. The series is classed as functional. (In general: In xenograft studies the graft and the host belong to different species.)

Series [7] concerns A549. In words: Antitumor activity against human A549 cells xenografted in BALB/c nude mouse assessed as tumor growth inhibition at 25 mg/kg, iv administered for 21 consecutive days relative to control. It counts as functional. The following applies: 504 h, time 21 day, read-out: TGI.
Series [8] has as its target T1, Protein deacetylase HDAC6 (Homo sapiens). As to the kind of experiment: Inhibition of HDAC6 in human A549 cells assessed as accumulation of acetylation of H4 at 1 to 10 uM measured after 48 hrs by Western blot analysis. It counts as cell-based. The note with it: dose 1-10 µM.
The target is the same in series [9]. As to the kind of experiment: Inhibition of HDAC6 in human A549 cells assessed as accumulation of acetylation of H3 at 1 to 10 uM measured after 48 hrs by Western blot analysis. The note with it: dose 1-10 µM. It counts as cell-based.
Series [10] in a line: Bioavailability in Sprague-Dawley rat at 50 mg/kg, ip measured up to 24 hrs by LC-MS analysis. The series is classed as ADME, organism-based. The note with it: in vivo.
Series [11] deals with T1, Protein deacetylase HDAC6 (Homo sapiens). As to the kind of experiment: Inhibition of HDAC6 in human MCF7 cells assessed as accumulation of acetylation of H4 at 1 to 10 uM measured after 48 hrs by Western blot analysis. The series is classed as cell-based. The following applies: dose 1-10 µM.
Series [12] in a line: Toxicity in BALB/c nude mouse xenografted with human A549 cells assessed as adverse effect at 25 to 50 mg/kg, iv administered for 21 consecutive days. The series is classed as organism-based. The note with it: in vivo, 504 h, dose 25-50 mg/kg, time 21 day.
The target in series [13] is T1, Protein deacetylase HDAC6 (Homo sapiens). As to the kind of experiment: Inhibition of HDAC6 in human MCF7 cells assessed as accumulation of acetylation of H3 at 1 to 10 uM measured after 48 hrs by Western blot analysis. The series is classed as cell-based. The note with it: dose 1-10 µM.
The test system of series [14] is K562. As to the kind of experiment: Induction of apoptosis in human K562 cells assessed as increase in sum of early and late apoptotic cells at 2.5 to 10 uM measured after 48 hrs by Annexin-V/FITC-propidium iodide staining based flow cytometry analysis. The series is classed as functional, cell-based. The note with it: dose 2.5-10 µM.
In series [15] the target is T1, Protein deacetylase HDAC6 (Homo sapiens). In words: Inhibition of HDAC6 in human MCF7 cells assessed as increase in alpha tubulin acetylation measured after 48 hrs by Western blot analysis. The series is classed as cell-based. The note with it: dose 1-10 µM.
The subject of series [16] is A549. As to the kind of experiment: Induction of apoptosis in human A549 cells measured after 48 hrs by Annexin-V/FITC-propidium iodide staining based flow cytometry analysis. It counts as functional, cell-based. The following applies: dose 2.5-10 µM. For orientation: Flow cytometry measures light scatter and fluorescence of single cells or particles in a stream.
In a further series the test system is Mus musculus. In words: In vivo inhibition of CDK2/4/6 in BALB/c nude mouse xenografted with human A549 cells assessed as reduction in Rb phosphorylation at 25 to 50 mg/kg, iv administered for 21 consecutive days by immunohistochemical analysis. The series is classed as functional, organism-based. The following applies: dose 25-50 mg/kg.
Series [17] has as its system K562. In words: Induction of apoptosis in human K562 cells measured after 48 hrs by Annexin-V/FITC-propidium iodide staining based flow cytometry analysis. The series is classed as functional, cell-based. The following applies: dose 2.5-10 µM.
In series [18] the target is T1, Protein deacetylase HDAC6 (Homo sapiens). In words: Inhibition of HDAC6 in human K562 cells assessed as accumulation of acetylation of […] at 1 to 10 uM measured after 48 hrs by Western blot analysis. The series is classed as cell-based. The following applies: dose 1-10 µM.
The nature of series [19]: Toxicity in iv dosed BALB/c nude mouse assessed as maximum tolerated dose administered once daily for 5 consecutive days. It counts as organism-based. The note with it: in vivo, time 5 day.
Series [20] in a line: Toxicity in BALB/c nude mouse xenografted with human A549 cells assessed as body weight loss at 0.75 to 1.5 mg, IT(intratumoral) administered for 21 consecutive days. The note with it: in vivo, other, 504 h, dose 0.75-1.5 mg, time 21 day.
Series [21] has as its system A549. In words: Antitumor activity against human A549 cells xenografted in BALB/c nude mouse assessed as reduction in tumor weight at 25 to 50 mg/kg, iv administered for 21 consecutive days. The note with it: dose 25-50 mg/kg, time 21.0 day. It counts as functional, organism-based.

For the compound `O=C(CCCO/N=C1/C(=C2/C(=O)Nc3ccccc32)Nc2ccccc21)NO`, the Activity entry in the series on A549 [1] was “Dose-Dependent Effect”; in the series on A549 [5] it was “Dose-Dependent Effect”; in series [12] it was “Non-Toxic”; in the series on A549 [16] it was “Dose-Dependent Effect”; with K562 [17] it was “Dose-Dependent Effect”; in series [20] it was “Non-Toxic”. Also, the “Ratio IC50” value in the series with A549 [2] came to 3. The inhibition entry in series [3], in [4] and in [15] was “Dose-Dependent Effect” in each case. Also, in the series with A549 [6], the TGI was found to be 67.1%. The inhibition in vivo at 25 mg/kg in the series with A549 [7] came out at 43.2%. Also, the inhibition result in series [8], in [9], in series [11], in [13] and in series [18] was “inactive” throughout. This compound also came in with a bioavailability in series [10] of 13%. The result in the series on K562 [14] and in the series on A549 [21] was Active. For the same compound, the inhibition entry in the series on Mus musculus was “Active”. Moreover, the MTD at 120 h in [19] is not above 200 mg/kg.

In general, TGI refers to the reduction of tumour growth relative to the control group. The bioavailability is the share of a dose that reaches the circulation, judged against a reference dose that is usually intravenous. Lower therefore signals little systemic uptake. The term MTD denotes the highest dose tested that stayed within the study's limit of toxicity.
